According to patent US20060004029A1, “Nitrogen-containing aromatic derivatives” (priority 2003, published 2006):

Target: T1, VEGFR2 (Homo sapiens, UniProt P35968)
T1 construct: coding for the cytoplasmic domain, beginning with lysine 791 and including the termination codon; made in house; host or cells: Sf9 insect cells, baculovirus (pFastBacHis)
Experiment: Inhibition against receptor tyrosine kinase activity (HTRF), VEGFR2
Assay type: biochemical
Conditions: His6-VEGFR2 cytoplasmic domain, biotin-poly(GT), HTRF; read-out: VEGFR2 kinase IC50
Experimental: This assay is used to determine inhibition of a test substance on tyrosine kinase activity. […] Expression in an appropriate expression system can produce a polypeptide with tyrosine kinase activity. […] The recombinant construct was transfected into insect cells (Spondoptea frugiperda9 (Sf9)) to prepare a recombinant Baculovirus.
For expression of the VEGFR2 tyrosine kinase, Sf9 cells were infected with the VEGFR2 recombinant virus and collected after 48 hours. The collected cells were rinsed with ice-cooled phosphate buffered saline (PBS) and then resuspended using 20 ml of ice-cooled Lysis Buffer (50 mM Tris-HCl (pH 8.5), 5 mM 2-mercaptoethanol, 100 mM KCl, 1 mM phenylmethylsulfonyl fluoride, 1% (v/v) NP-40) per 1.5×10^8 cells. The suspension was centrifuged at 12,000 rpm for 30 minutes at 4° C. and the supernatant was obtained. The supernatant was added to a Ni-NTA agarose column (3 ml, purchased from Qiagen) equilibrated with Buffer A {20 mM Tris-HCl (pH 8.5), 5 mM 2-mercaptoethanol, 500 mM KCl, 20 mM imidazole, 10% (v/v) glycerol}. The column was washed with 30 ml of Buffer A, and then with 6 ml of Buffer B {20 mM Tris-HCl (pH 8.5), 5 mM 2-mercaptoethanol, 1M KCl, 10% (v/v) glycerol}, and finally with 6 ml of Buffer A. After washing, it was eluted with 6 ml of Buffer C {20 mM Tris-HCl (pH 8.5), 5 mM 2-mercaptoethanol, 100 mM KCl, 100 mM imidazole, 10% (v/v) glycerol}. The eluate was placed on a dialysis membrane (purchased from Spectrum Laboratories) and dialyzed with a dialysis buffer {20 mM Tris-HCl (pH 7.5), 10% (v/v) glycerol, 1 mM dithiothreitol, 0.1 mM Na3VO4, 0.1 mM EGTA}. […] Using the same method for the cytoplasmic domains of FGFR1, PDGFRβ and HGFR yielded respective recombinant proteins fused with 6 histidine residues at the N-terminal (His6-FGFR1, His6-PDGFRβ or His6-HGFR).
The tyrosine kinase reaction was conducted as follows. […] Next, 10 μl of 4 μM ATP (diluted with distilled water) was added prior to incubation at 30° C. for 10 minutes, and then 10 μl of 500 mM EDTA (pH 8.0) was added.
The tyrosine phosphorylation rate for the biotin-poly(GT) was expressed as the delta F % value as described in the HTRF Standard Experiment Methods text by CIS Diagnostics Co. The delta F % value in the presence of the test substance was determined as a ratio (%) with the delta F % value with addition of His6-VEGFR2 in the absence of the test substance defined as 100% and the delta F % value in the absence of both the test substance and His6-VEGFR2 defined as 0%.

T1 sequence (P35968 786-1356 limits assumed): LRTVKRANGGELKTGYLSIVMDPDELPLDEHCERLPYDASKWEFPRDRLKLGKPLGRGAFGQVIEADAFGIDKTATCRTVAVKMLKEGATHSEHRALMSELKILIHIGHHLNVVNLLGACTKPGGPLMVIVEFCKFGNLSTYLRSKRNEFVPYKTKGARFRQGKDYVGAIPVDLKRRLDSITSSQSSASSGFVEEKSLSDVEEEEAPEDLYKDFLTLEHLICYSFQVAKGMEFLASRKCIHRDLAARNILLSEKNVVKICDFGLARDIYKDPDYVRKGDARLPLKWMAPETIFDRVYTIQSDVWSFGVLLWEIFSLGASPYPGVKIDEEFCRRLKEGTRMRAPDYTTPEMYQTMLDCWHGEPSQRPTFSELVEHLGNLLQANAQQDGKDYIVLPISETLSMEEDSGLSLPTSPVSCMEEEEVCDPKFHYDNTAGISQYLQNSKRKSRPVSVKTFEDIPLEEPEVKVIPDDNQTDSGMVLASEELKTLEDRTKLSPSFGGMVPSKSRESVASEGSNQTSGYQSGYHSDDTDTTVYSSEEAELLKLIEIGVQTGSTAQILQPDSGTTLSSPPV

SMILES | IC50 [nM]
CNC(=O)n1ccc2cc(Oc3ccnc(NC(=O)N4CCC(C)(O)CC4)c3)ccc21 [Example 41, 5-(2-(((4-Hydroxy-4-methylpiperidin-1-yl)carbonyl)amino)pyridin-4-yloxy)-1H-1-indole-1-carboxylic acid methylamide] | 6.1
CNC(=O)n1ccc2cc(Oc3ccnc(NC(=O)N4CCC(N5CCCC5)CC4)c3)ccc21 [Example 46, N1-Methyl-5-(2-(((4-(pyrrolidin-1-yl)piperidin-1-yl)carbonyl)amino)pyridin-4-yloxy)-1H-1-indolecarboxamide] | 32
CNC(=O)n1ccc2cc(Oc3ccnc(NC(=O)N4CCOCC4)c3)ccc21 [Example 53, N4-(4-(1-(Methylamino)carbonyl-1H-5-indolyl)oxy-2-pyridyl)-4-morpholinecarboxamide] | 3.8

Continued by falling IC50, values first:

IC50 [nM] | SMILES
40 | CNC(=O)n1ccc2cc(Oc3ccnc(NC(=O)N4CCC(N5CCCCC5)CC4)c3)ccc21 [Example 47, N1-Methyl-5-(2-(((4-(piperidin-1-yl)piperidin-1-yl)carbonyl)amino)pyridin-4-yloxy)-1H-1-indolecarboxamide]
4.5 | CNC(=O)n1ccc2cc(Oc3ccnc(NC(=O)N4CCC(O)CC4)c3)ccc21 [Example 39, N1-Methyl-5-(2-((4-hydroxypiperidino)carbonyl)amino-4-pyridyl)oxy-1H-1-indolecarboxamide]
